Experimental data reported in PubChem BioAssay (NCI).
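Method: 48-hour compound exposure of cells in 96-well plates, five concentrations, linear interpolation of endpoints. The concentration for 50% growth inhibition is given as GI50. The concentration for full growth arrest is given as TGI.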

Legend:
Assay in all cases: DTP human tumour cell line panel, 48 h
786-0 renal = test system: 786-0 renal
A498 renal = test system: A498 renal
A549 NSCLC = test system: A549 NSCLC
ACHN renal = test system: ACHN renal
BT-549 breast = test system: BT-549 breast
CAKI-1 renal = test system: CAKI-1 renal
CCRF-CEM leukemia = test system: CCRF-CEM leukemia
COLO 205 colon = test system: COLO 205 colon
DU-145 prostate = test system: DU-145 prostate
EKVX NSCLC = test system: EKVX NSCLC
HCC-2998 colon = test system: HCC-2998 colon
HCT-116 colon = test system: HCT-116 colon
HCT-15 colon = test system: HCT-15 colon
HL-60(TB) leukemia = test system: HL-60(TB) leukemia
HOP-62 NSCLC = test system: HOP-62 NSCLC
HOP-92 NSCLC = test system: HOP-92 NSCLC
HS 578T breast = test system: HS 578T breast
HT29 colon = test system: HT29 colon
IGROV1 ovarian = test system: IGROV1 ovarian
K-562 leukemia = test system: K-562 leukemia
KM12 colon = test system: KM12 colon
LOX IMVI melanoma = test system: LOX IMVI melanoma
M14 melanoma = test system: M14 melanoma
MALME-3M melanoma = test system: MALME-3M melanoma
MCF7 breast = test system: MCF7 breast
MDA-MB-231 breast = test system: MDA-MB-231 breast
MDA-MB-435 = test system: MDA-MB-435
MOLT-4 leukemia = test system: MOLT-4 leukemia
NCI-H226 lung = test system: NCI-H226 lung
NCI-H23 lung = test system: NCI-H23 lung
NCI-H460 lung = test system: NCI-H460 lung
NCI-H522 lung = test system: NCI-H522 lung
NCI/ADR-RES ovarian = test system: NCI/ADR-RES ovarian
OVCAR-4 ovarian = test system: OVCAR-4 ovarian
OVCAR-5 ovarian = test system: OVCAR-5 ovarian
OVCAR-8 ovarian = test system: OVCAR-8 ovarian
PC-3 prostate = test system: PC-3 prostate
RPMI-8226 leukemia = test system: RPMI-8226 leukemia
RXF 393 renal = test system: RXF 393 renal
SF-268 CNS = test system: SF-268 CNS
SF-295 CNS = test system: SF-295 CNS
SF-539 CNS = test system: SF-539 CNS
SK-MEL-2 melanoma = test system: SK-MEL-2 melanoma
SK-MEL-28 melanoma = test system: SK-MEL-28 melanoma
SK-MEL-5 melanoma = test system: SK-MEL-5 melanoma
SK-OV-3 ovarian = test system: SK-OV-3 ovarian
SN12C renal = test system: SN12C renal
SNB-19 CNS = test system: SNB-19 CNS
SNB-75 CNS = test system: SNB-75 CNS
SR leukemia = test system: SR leukemia
SW-620 colon = test system: SW-620 colon
T-47D breast = test system: T-47D breast
TK-10 renal = test system: TK-10 renal
U251 CNS = test system: U251 CNS
UACC-257 melanoma = test system: UACC-257 melanoma
UACC-62 melanoma = test system: UACC-62 melanoma
UO-31 renal = test system: UO-31 renal

Q: Which results are given for `CCCCCc1ccc(S(=O)(=O)Nc2cc(-c3csc(NC(=O)CN4CCN(C)CC4)n3)ccc2N2CCN(C)CC2)cc1`?
A: GI50 (786-0 renal): 826 nM; TGI (786-0 renal): 1570 nM; GI50 (A498 renal): 2900 nM; TGI (A498 renal): 9030 nM; GI50 (A549 NSCLC): 1250 nM; TGI (A549 NSCLC): 3720 nM; GI50 (ACHN renal): 1140 nM; TGI (ACHN renal): 2640 nM; GI50 (BT-549 breast): 4070 nM; TGI (BT-549 breast): 11100 nM; GI50 (CAKI-1 renal): 895 nM; TGI (CAKI-1 renal): 1970 nM; GI50 (CCRF-CEM leukemia): 792 nM; TGI (CCRF-CEM leukemia): 3380 nM; GI50 (COLO 205 colon): 924 nM; TGI (COLO 205 colon): 1860 nM; GI50 (DU-145 prostate): 1520 nM; TGI (DU-145 prostate): 4640 nM; GI50 (EKVX NSCLC): 1970 nM; TGI (EKVX NSCLC): 7470 nM; GI50 (HCC-2998 colon): 877 nM; TGI (HCC-2998 colon): 1780 nM; GI50 (HCT-116 colon): 735 nM; TGI (HCT-116 colon): 1490 nM; GI50 (HCT-15 colon): 733 nM; TGI (HCT-15 colon): 1620 nM; GI50 (HL-60(TB) leukemia): 1000 nM; TGI (HL-60(TB) leukemia): 2350 nM; GI50 (HOP-62 NSCLC): 954 nM; TGI (HOP-62 NSCLC): 1990 nM; GI50 (HOP-92 NSCLC): 909 nM; TGI (HOP-92 NSCLC): 3410 nM; GI50 (HS 578T breast): 1050 nM; TGI (HS 578T breast): 2420 nM; GI50 (HT29 colon): 872 nM; TGI (HT29 colon): 1810 nM; GI50 (IGROV1 ovarian): 1120 nM; TGI (IGROV1 ovarian): 2610 nM; GI50 (K-562 leukemia): 166 nM; TGI (K-562 leukemia): 5530 nM; GI50 (KM12 colon): 1160 nM; TGI (KM12 colon): 2670 nM; GI50 (LOX IMVI melanoma): 842 nM; TGI (LOX IMVI melanoma): 1610 nM; GI50 (M14 melanoma): 895 nM; TGI (M14 melanoma): 1710 nM; GI50 (MALME-3M melanoma): 879 nM; TGI (MALME-3M melanoma): 1670 nM; GI50 (MCF7 breast): 893 nM; TGI (MCF7 breast): 1840 nM; GI50 (MDA-MB-231 breast): 913 nM; TGI (MDA-MB-231 breast): 1830 nM; GI50 (MDA-MB-435): 910 nM; TGI (MDA-MB-435): 1760 nM; GI50 (MOLT-4 leukemia): 1120 nM; TGI (MOLT-4 leukemia): 3740 nM; GI50 (NCI-H226 lung): 3000 nM; TGI (NCI-H226 lung): 9350 nM; GI50 (NCI-H23 lung): 1400 nM; TGI (NCI-H23 lung): 4370 nM; GI50 (NCI-H460 lung): 966 nM; TGI (NCI-H460 lung): 1860 nM; GI50 (NCI-H522 lung): 909 nM; TGI (NCI-H522 lung): 1720 nM; GI50 (NCI/ADR-RES ovarian): 1380 nM; TGI (NCI/ADR-RES ovarian): 3960 nM; GI50 (OVCAR-4 ovarian): 1010 nM; TGI (OVCAR-4 ovarian): 2340 nM; GI50 (OVCAR-5 ovarian): 1250 nM; TGI (OVCAR-5 ovarian): 3310 nM; GI50 (OVCAR-8 ovarian): 966 nM; TGI (OVCAR-8 ovarian): 1950 nM; GI50 (PC-3 prostate): 1200 nM; TGI (PC-3 prostate): 3490 nM; GI50 (RPMI-8226 leukemia): 1030 nM; TGI (RPMI-8226 leukemia): 2660 nM; GI50 (RXF 393 renal): 792 nM; TGI (RXF 393 renal): 1590 nM; GI50 (SF-268 CNS): 941 nM; TGI (SF-268 CNS): 2010 nM; GI50 (SF-295 CNS): 956 nM; TGI (SF-295 CNS): 1930 nM; GI50 (SF-539 CNS): 860 nM; TGI (SF-539 CNS): 1620 nM; GI50 (SK-MEL-2 melanoma): 853 nM; TGI (SK-MEL-2 melanoma): 1610 nM; GI50 (SK-MEL-28 melanoma): 926 nM; TGI (SK-MEL-28 melanoma): 1690 nM; GI50 (SK-MEL-5 melanoma): 900 nM; TGI (SK-MEL-5 melanoma): 1640 nM; GI50 (SK-OV-3 ovarian): 1110 nM; TGI (SK-OV-3 ovarian): 2670 nM; GI50 (SN12C renal): 1060 nM; TGI (SN12C renal): 2370 nM; GI50 (SNB-19 CNS): 1380 nM; TGI (SNB-19 CNS): 4110 nM; GI50 (SNB-75 CNS): 2110 nM; TGI (SNB-75 CNS): 4480 nM; GI50 (SR leukemia): 173 nM; TGI (SR leukemia): 930 nM; GI50 (SW-620 colon): 853 nM; TGI (SW-620 colon): 1640 nM; GI50 (T-47D breast): 829 nM; TGI (T-47D breast): 1620 nM; GI50 (TK-10 renal): 2920 nM; TGI (TK-10 renal): 7140 nM; GI50 (U251 CNS): 834 nM; TGI (U251 CNS): 1650 nM; GI50 (UACC-257 melanoma): 909 nM; TGI (UACC-257 melanoma): 1710 nM; GI50 (UACC-62 melanoma): 912 nM; TGI (UACC-62 melanoma): 1740 nM; GI50 (UO-31 renal): 818 nM; TGI (UO-31 renal): 1670 nM
